Experiments:
[1] = molecular target: T1, Arabidopsis HPPD (SEQ ID: 53) M335H, P336A, E363Q (Arabidopsis thaliana, UniProt P93836, E363Q/M335H/P336A); test: HPPD activity assay, in vitro characterization of HPPD mutants; assay type: biochemical; conditions: Table 15, Arabidopsis HPPD variant M335H, wild-type = 1
T1 construct: PCR-based site directed mutagenesis of pEXP5-NT/TOPO®-AtHPPD is done; His6 (N); made in house; host or cells: E. coli BL21 (DE3)
Experimental: (§1) HPPD produces homogentisic acid and CO2 from 4-hydroxyphenylpyruvate (4-HPP) and 02. The activity assay for HPPD is based on the analysis of homogentisic acid by reversed phase HPLC. The assay mixture can contain 150 mM potassium phosphate buffer pH 7.0, 50 mM L-ascorbic acid, 100 μM Catalase (Sigma-Aldrich), 1 μM FeSO4 and 0.2 units of purified HPPD enzyme in a total volume of 505 μl. 1 unit is defined as the amount of enzyme that is required to produce 1 nmol of HGA per minute at 20° C.
(§2) After a preincubation of 30 min the reaction is started by adding 4-HPP to a final concentration of 0.05 mM. The reaction is allowed to proceed for 45 min at room temperature. The reaction is stopped by the addition of 50 μl of 4.5 M phosphoric acid. The sample is filtered using a […] pore size PVDF filtration device.
(§3) 5 μl of the cleared sample is analyzed on an UPLC HSS T3 column (particle size 1.8 μm, dimensions 2.1×50 mm; Waters) by isocratic elution using 90% 20 mM NaH2PO4 pH 2.2, 10% methanol (v/v).
(§4) HGA is detected electrochemically at 750 mV (mode: DC; polarity: positive) and quantified by integrating peak areas (Empower software; Waters).
(§5) Inhibitors are dissolved in DMSO (dimethylsulfoxide) to a concentration of 0.5 mM. From this stock solution serial five-fold dilutions are prepared in DMSO, which are used in the assay. The respective inhibitor solution accounts for 1% of the assay volume. […] Activities are normalized by setting the uninhibited enzyme activity to 100%. IC50 values are calculated using non-linear regression.
(§6) Purified, mutant HPPD enzymes are obtained by the methods described above. Dose response and kinetic measurements are carried out using the described HPPD activity assay. Apparent michaelis constants (Km) and maximal reaction velocities (Vmax) are calculated by non-linear regression with the software GraphPad Prism 5 (Graph Pad Software, La Jolla, USA) using a substrate inhibition model. […] Weighted means (by standard error) of Km and IC50 values are calculated from at least three independent experiments.
(§7) Field performance of the optimized HPPD enzyme, which is used as a herbicide tolerance trait may depend not only on its lack of sensitivity towards HPPD inhibiting herbicides but also on its activity. To assess the potential performance of a herbicide tolerance trait a tolerance index (TI) is calculated using the following formula: […]
(§8) Easy comparison and ranking of each trait is enabled by normalizing tolerance indexes on Arabidopsis wild-type HPPD.

[2] = molecular target: T2, Hordeum HPPD (SEQ ID: 2) L353M, P321R, V212I (Hordeum vulgare, UniProt O48604, L353M/P321R/V212I); test: as above; assay type: biochemical; conditions: Table 16, Hordeum wild-type = 1
T2 construct: His (N); made in house; host or cells: E. coli BL21 (DE3)
Experimental: as §1, §2, §3, §4, §5, §6, §7, §8

[3] = molecular target: T3, Hordeum HPPD (SEQ ID: 2) G407C (Hordeum vulgare, UniProt O48604, A164G/G407C/R146V/R147D/R148G); test: as above; assay type: biochemical; conditions: Table 16, Hordeum wild-type = 1
T3 construct: His (N); made in house; host or cells: E. coli BL21 (DE3)
Experimental: as §1, §2, §3, §4, §5, §6, §7, §8

Picrophilus HPPD = test: HPPD activity assay, tolerance index; assay type: biochemical, Picrophilus torridus; conditions: Table 12, normalized to reference SEQ ID NO:53
Experimental: as §1, §2, §3, §4
Inhibitors are dissolved in DMSO (dimethylsulfoxide) to a concentration of 0.5 mM. From this stock solution serial five-fold dilutions are prepared in DMSO, which are used in the assay. […] IC50 values are calculated using non-linear regression. […]

T1 sequence (P93836 whole entry M335H/P336A/E363Q): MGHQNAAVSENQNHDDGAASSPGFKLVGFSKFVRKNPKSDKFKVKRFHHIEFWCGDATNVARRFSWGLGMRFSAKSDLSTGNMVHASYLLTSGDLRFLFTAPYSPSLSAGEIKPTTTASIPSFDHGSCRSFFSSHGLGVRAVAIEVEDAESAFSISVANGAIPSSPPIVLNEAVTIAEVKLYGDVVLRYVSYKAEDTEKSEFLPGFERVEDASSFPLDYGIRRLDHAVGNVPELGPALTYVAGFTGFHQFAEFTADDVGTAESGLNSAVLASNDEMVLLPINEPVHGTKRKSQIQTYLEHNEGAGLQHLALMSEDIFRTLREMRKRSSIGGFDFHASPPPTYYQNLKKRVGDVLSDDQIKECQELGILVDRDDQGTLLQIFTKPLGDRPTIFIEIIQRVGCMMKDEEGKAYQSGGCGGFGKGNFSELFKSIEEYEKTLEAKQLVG
T3 sequence (O48604 whole entry R146V/R147D/R148G/A164G/G407C): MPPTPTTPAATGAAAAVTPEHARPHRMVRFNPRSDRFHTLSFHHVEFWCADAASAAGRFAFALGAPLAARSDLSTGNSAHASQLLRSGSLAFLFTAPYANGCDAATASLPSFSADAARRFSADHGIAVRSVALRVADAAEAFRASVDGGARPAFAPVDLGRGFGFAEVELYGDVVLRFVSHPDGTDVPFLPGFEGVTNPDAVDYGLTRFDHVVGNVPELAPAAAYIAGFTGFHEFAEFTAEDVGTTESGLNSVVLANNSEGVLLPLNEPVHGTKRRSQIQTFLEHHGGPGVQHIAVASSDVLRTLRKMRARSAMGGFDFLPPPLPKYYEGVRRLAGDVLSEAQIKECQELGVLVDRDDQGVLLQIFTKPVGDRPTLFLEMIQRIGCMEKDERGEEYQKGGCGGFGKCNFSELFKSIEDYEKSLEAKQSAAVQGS
T2 sequence (O48604 whole entry R146V/R147D/R148G/A164G/V212I/P321R/L353M): as the sequence (O48604 whole entry R146V/R147D/R148G/A164G/G407C) above, with V212I, P321R, L353M, C407G counted along it

SMILES: COc1no[nH]/c1=N/C(=O)c1ccc2c(c1Cl)S(=O)(=O)CCC2(C)C [Inhibitor 1, (NE)-8-chloro-N-(4-methoxy-1,2,5-oxadiazol-3-ylidene)-4,4-dimethyl-1,1-dioxo-2,3-dihydrothiochromene-7-carboxamide]
- TI Inhibitor 1 (normalized tolerance index) [1]: 0.3
- TI Inhibitor 1 (normalized tolerance index) [2]: 2.9
- TI Inhibitor 1 (normalized tolerance index) [3]: 3.3
- TI Inhibitor 1 (normalized tolerance index) (Picrophilus HPPD): 0.4
